A short description of this assay: Inhibition of [alpha-32P]ATP binding to DnaA protein purified from Escherichia coli.
On to `CCOc1c(-c2cc3ccccc3[nH]2)[nH]c2ccccc12`, for which the IC50 (in general, the concentration that gives 50% inhibition) worked out at 200 µM. With `CC(=O)Oc1c(-c2cc3ccccc3[nH]2)[nH]c2ccccc12`, the half-maximal inhibitory concentration (IC50) is 40 µM. Against the preceding molecule, the IC50 is about 5-fold lower.

For `O=C1C(c2c[nH]c3ccccc23)=C(c2c[nH]c3ccccc23)C(=O)N1Cc1ccccc1`, the half-inhibitory concentration (IC50) was > 10000 µM.

Take `CC(=O)Oc1c(-c2c(C(C)=O)c3ccccc3n2C(C)=O)[nH]c2ccccc12`: the IC50 amounted to 1500 µM.

On to `CC(c1ccccc1)N1C(=O)c2c(c3c4ccccc4[nH]c3c3[nH]c4ccccc4c23)C1=O` (stereo not given), for which the IC50 was found to be 5000 µM. As for `Nc1ncnc2c1ncn2[C@@H]1O[C@H](CO)[C@@H](O)[C@H]1O` [ADENOSINE], the IC50 was > 10000 µM. Molecule `CN(C)CCCn1cc(C2=C(c3c[nH]c4ccccc34)C(=O)NC2=O)c2ccccc21` [GF-109203] returned an IC50 of 3000 µM. With `O=C1/C(=C2\Nc3ccccc3C2=O)Nc2ccccc21` [INDIGO], the IC50 stood at 200 µM. On to `c1ccc2[nH]ccc2c1` [INDOLE], for which the IC50 was > 10000 µM. `O=C1NC(=O)C(c2c[nH]c3ccccc23)=C1c1c[nH]c2ccccc12` [RO-316233] showed an IC50 of 1000 µM. That is a millimolar value.

For the origin of these results see ChEMBL document CHEMBL1151526, “3-Acetoxy-2,2-bi-1H-indol as a novel inhibitor of ATP binding to DnaA, the protein initiating chromosomal replication in escherichia coli” (Bioorg Med Chem Lett, 1994).
